Measured values published in ChEMBL document CHEMBL1201862, “PubChem BioAssay data set” (2004).
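These data come from cells grown in 96-well plates and exposed to compound for 48 hours at five concentrations. The concentration for 50% growth inhibition is given as GI50.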 Active and inactive are the calls of the source. Rule as the data show it: active = GI50 up to about 1.1 µM and inactive = higher.

How the values were obtained:
Assay in all cases: NCI-60 cell line screen, 48 h
786-0 = system: 786-0
A498 = system: A498
A549 = system: A549
ACHN = system: ACHN
BT-549 = system: BT-549
CAKI-1 = system: CAKI-1
EKVX = system: EKVX
HCT-116 = system: HCT-116
HCT-15 = system: HCT-15
HL-60 = system: HL-60
HOP-62 = system: HOP-62
HOP-92 = system: HOP-92
HT-29 = system: HT-29
Hs-578T = system: Hs-578T
IGROV-1 = system: IGROV-1
K562 = system: K562
KM12 = system: KM12
LOX IMVI = system: LOX IMVI
M14 = system: M14
MDA-MB-231 = system: MDA-MB-231
MDA-MB-435 = system: MDA-MB-435
MDA-N = system: MDA-N
MOLT-4 = system: MOLT-4
Malme-3M = system: Malme-3M
NCI-H226 = system: NCI-H226
NCI-H23 = system: NCI-H23
NCI-H460 = system: NCI-H460
NCI-H522 = system: NCI-H522
NCI/ADR-RES = system: NCI/ADR-RES
OVCAR-3 = system: OVCAR-3
OVCAR-4 = system: OVCAR-4
OVCAR-5 = system: OVCAR-5
OVCAR-8 = system: OVCAR-8
PC-3 = system: PC-3
RXF 393 = system: RXF 393
SF-268 = system: SF-268
SF-295 = system: SF-295
SK-MEL-28 = system: SK-MEL-28
SK-MEL-2 = system: SK-MEL-2
SK-MEL-5 = system: SK-MEL-5
SN12C = system: SN12C
SNB-19 = system: SNB-19
SR = system: SR
SW-620 = system: SW-620
T47D = system: T47D
TK-10 = system: TK-10
U-251 = system: U-251
UACC-257 = system: UACC-257
UACC-62 = system: UACC-62
UO-31 = system: UO-31
CCRF-CEM = system: CCRF-CEM
COLO 205 = system: COLO 205
DU-145 = system: DU-145
HCC 2998 = system: HCC 2998
RPMI-8226 = system: RPMI-8226
SK-OV-3 = system: SK-OV-3
SNB-75 = system: SNB-75
MCF7 = system: MCF7
SF-539 = system: SF-539

Measured: GI50

c1ccc2c(c1)nnn2CN1CCOCC1
inactive: 786-0 > 100 µM | A498 > 100 µM | A549 > 100 µM | ACHN > 100 µM | BT-549 > 100 µM | CAKI-1 75.7 µM | EKVX > 100 µM | HCT-116 > 100 µM | HL-60 29.2 µM | HOP-62 > 100 µM | HOP-92 45.8 µM | HT-29 > 100 µM | Hs-578T 19.2 µM | IGROV-1 94.4 µM | K562 45 µM | KM12 > 100 µM | LOX IMVI 36.6 µM | M14 > 100 µM | MDA-MB-231 > 100 µM | MDA-MB-435 > 100 µM | MDA-N 71.6 µM | MOLT-4 35.6 µM | Malme-3M 41.8 µM | NCI-H226 > 100 µM | NCI-H23 > 100 µM | NCI-H460 46.3 µM | NCI-H522 > 100 µM | NCI/ADR-RES > 100 µM | OVCAR-3 28.9 µM | OVCAR-4 > 100 µM | OVCAR-5 > 100 µM | OVCAR-8 36.3 µM | PC-3 > 100 µM | RXF 393 48.5 µM | SF-268 63.8 µM | SF-295 > 100 µM | SK-MEL-28 > 100 µM | SK-MEL-2 > 100 µM | SK-MEL-5 > 100 µM | SN12C 39.8 µM | SNB-19 > 100 µM | SR 25 µM | SW-620 28.3 µM | T47D > 100 µM | TK-10 > 100 µM | U-251 > 100 µM | UACC-257 > 100 µM | UACC-62 58.3 µM | UO-31 > 100 µM
> 100 µM: HCT-15

COC(C/C=C\C=C\CC/C=C/CC(C)/C=C/C(=C\C(=O)O)CC(=O)O)/C(C)=C\C=C(/C)C(=O)O (centres undefined)
inactive: A498 > 100 µM | A549 > 100 µM | BT-549 > 100 µM | CAKI-1 > 100 µM | CCRF-CEM > 100 µM | COLO 205 > 100 µM | DU-145 > 100 µM | EKVX 28.4 µM | HCC 2998 > 100 µM | HCT-116 > 100 µM | HOP-62 > 100 µM | HOP-92 > 100 µM | HT-29 > 100 µM | Hs-578T 61.7 µM | IGROV-1 > 100 µM | KM12 > 100 µM | M14 > 100 µM | MDA-MB-231 > 100 µM | MDA-MB-435 > 100 µM | MDA-N > 100 µM | MOLT-4 > 100 µM | Malme-3M > 100 µM | NCI-H23 > 100 µM | NCI-H460 > 100 µM | NCI-H522 > 100 µM | OVCAR-3 > 100 µM | OVCAR-4 > 100 µM | OVCAR-5 > 100 µM | PC-3 > 100 µM | RPMI-8226 > 100 µM | SF-268 > 100 µM | SF-295 > 100 µM | SK-MEL-28 > 100 µM | SK-MEL-2 > 100 µM | SK-MEL-5 99.3 µM | SK-OV-3 > 100 µM | SN12C > 100 µM | SNB-19 > 100 µM | SNB-75 58.3 µM | SR > 100 µM | SW-620 > 100 µM | TK-10 > 100 µM | U-251 > 100 µM | UACC-257 > 100 µM | UACC-62 > 100 µM | UO-31 > 100 µM
> 100 µM: HCT-15

CC1CC[C@@]2(OC1)OC1C[C@H]3[C@@H]4CC=C5CC(OC6OC(CO)C(OC7OC(CO)C(O)C(OC8OCC(O)C(O)C8O)C7OC7OC(CO)C(O)C(O)C7O)C(O)C6O)CCC5(C)[C@H]4CCC3(C)C1[C@@H]2C (some centres undefined)
14.9 µM: HCT-15
inactive: 786-0 5.9 µM | A498 4.69 µM | A549 4.38 µM | ACHN 4.97 µM | BT-549 4.38 µM | CAKI-1 4.95 µM | CCRF-CEM 5.16 µM | COLO 205 4.59 µM | DU-145 4.86 µM | EKVX 4.67 µM | HCC 2998 4.68 µM | HCT-116 4.44 µM | HL-60 4.9 µM | HOP-62 4.09 µM | HOP-92 > 25 µM | HT-29 5.08 µM | Hs-578T 4.66 µM | IGROV-1 3.94 µM | K562 7.23 µM | KM12 5.32 µM | LOX IMVI 4.48 µM | M14 11.2 µM | MCF7 6.3 µM | MDA-MB-231 4.66 µM | MDA-MB-435 5.78 µM | MOLT-4 9.18 µM | Malme-3M > 25 µM | NCI-H226 13.3 µM | NCI-H23 5.64 µM | NCI-H460 5.52 µM | NCI-H522 4.72 µM | NCI/ADR-RES 5.97 µM | OVCAR-3 4.93 µM | OVCAR-4 6.58 µM | OVCAR-5 8.51 µM | OVCAR-8 4.61 µM | PC-3 4.06 µM | RPMI-8226 6.81 µM | RXF 393 4.76 µM | SF-268 4.84 µM | SF-295 7.11 µM | SF-539 3.6 µM | SK-MEL-28 12.3 µM | SK-MEL-2 11.7 µM | SK-MEL-5 4.67 µM | SK-OV-3 6.55 µM | SN12C 4.58 µM | SNB-19 10.3 µM | SNB-75 7.69 µM | SR 7.23 µM | SW-620 3.98 µM | T47D 5.71 µM | TK-10 7.43 µM | U-251 4.68 µM | UACC-257 6.47 µM | UACC-62 21.7 µM

N=c1oc2ccccc2cc1C(=O)Nc1nccs1
24.8 µM: HCT-15
inactive: 786-0 2.37 µM | A498 45.7 µM | A549 44.6 µM | ACHN 4.54 µM | BT-549 39.5 µM | CAKI-1 13.4 µM | CCRF-CEM 2.79 µM | COLO 205 14.6 µM | DU-145 20.9 µM | EKVX 25.1 µM | HCC 2998 35.2 µM | HCT-116 26.8 µM | HOP-62 18.8 µM | HOP-92 32.5 µM | HT-29 46.6 µM | Hs-578T 46.3 µM | IGROV-1 8.26 µM | K562 13.9 µM | KM12 34.3 µM | LOX IMVI 2.33 µM | M14 19 µM | MCF7 5.7 µM | MDA-MB-231 33.7 µM | MDA-MB-435 25.8 µM | MOLT-4 4.8 µM | Malme-3M 35.6 µM | NCI-H226 19.7 µM | NCI-H23 35.8 µM | NCI-H460 26.7 µM | NCI/ADR-RES 19.7 µM | OVCAR-3 9.31 µM | OVCAR-4 20.5 µM | OVCAR-5 > 69.3 µM | OVCAR-8 16.8 µM | PC-3 34.5 µM | RPMI-8226 14.1 µM | RXF 393 17.5 µM | SF-268 47.3 µM | SF-295 35.6 µM | SF-539 5.75 µM | SK-MEL-28 44.5 µM | SK-MEL-2 26.9 µM | SK-MEL-5 31 µM | SK-OV-3 7.78 µM | SN12C 46.9 µM | SNB-19 52.2 µM | SNB-75 35.6 µM | SR 3.24 µM | SW-620 19.9 µM | T47D 14.1 µM | TK-10 7.85 µM | U-251 33 µM | UACC-257 27 µM | UACC-62 32.2 µM
active: HL-60 0.91 µM | NCI-H522 0.647 µM | UO-31 0.031 µM

NC(CCP(=O)(O)O)C(=O)O (centres undefined)
> 100 µM: HCT-15
inactive: 786-0 > 100 µM | A498 > 100 µM | A549 > 100 µM | ACHN > 100 µM | BT-549 > 100 µM | CAKI-1 > 100 µM | CCRF-CEM > 100 µM | EKVX > 100 µM | HCT-116 > 100 µM | HL-60 > 100 µM | HOP-62 > 100 µM | HOP-92 > 100 µM | HT-29 > 100 µM | Hs-578T > 100 µM | IGROV-1 > 100 µM | K562 > 100 µM | KM12 > 100 µM | LOX IMVI > 100 µM | M14 > 100 µM | MDA-MB-231 > 100 µM | MDA-MB-435 > 100 µM | MDA-N > 100 µM | MOLT-4 > 100 µM | Malme-3M > 100 µM | NCI-H226 > 100 µM | NCI-H23 > 100 µM | NCI-H460 > 100 µM | NCI-H522 > 100 µM | NCI/ADR-RES > 100 µM | OVCAR-3 > 100 µM | OVCAR-4 > 100 µM | OVCAR-5 > 100 µM | OVCAR-8 > 100 µM | PC-3 > 100 µM | RPMI-8226 > 100 µM | RXF 393 > 100 µM | SF-268 > 100 µM | SF-295 > 100 µM | SK-MEL-28 > 100 µM | SK-MEL-2 > 100 µM | SK-MEL-5 > 100 µM | SN12C > 100 µM | SNB-19 > 100 µM | SR > 100 µM | SW-620 > 100 µM | T47D > 100 µM | TK-10 > 100 µM | U-251 > 100 µM | UACC-257 > 100 µM | UACC-62 > 100 µM | UO-31 > 100 µM
